Experiments:
[1] = molecular target: T1, C5aR (Homo sapiens (Human), UniProt P21730); experiment: Inhibition of C5a-C5aR binding determined by cell migration assay (U937/C5aR cells); format: cell-based; details: U937/C5aR cell migration towards human C5a, 180 min
Procedure: Migration assay was performed by using polycarbonate membrane with 3.0 µm pore (Corning). U937/C5aR cells were collected and washed twice by PBS; cells were suspended in Hank's balanced salt solution (HBSS)+1% FBS buffer at the density of 6×10^6 cells/ml. Cells were premixed with compound and added to insert well, ligand human C5a and compound were added to bottom well in order, gently mix, incubate for 30 min at 37° C., […]. Put insert plate into bottom well, migrate for 180 min at 37° C., […]. Gently remove the insert well, add 50 μl CellTiter-Glo (Promega), gently shaking for 5 min at room temperature, transfer 150 μl mixture to black plate and read luminescence intensity by
microplate reader (BioTek).

[2] = molecular target: human C5a receptor (C5aR) (Homo sapiens (Human), UniProt P21730); experiment: Inhibition of C5a-C5aR binding (biotinylated human C5a, U937/C5aR cells, FACS)
How it was run: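 U937 cells stably expressing human C5aR, 3×10^6 cells/ml in PBS+0.1% BSA, were co-incubated with compound and biotinylated human C5a (30 nM, working solution) on ice for 120 min. Bound ligand was stained with FITC-streptavidin for 30 min on ice and read by flow cytometry.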

[3] = molecular target: T1, C5aR; experiment: Calcium mobilization (U937/C5aR or HEK293/C5aR cells, FLIPR); format: cell-based; details: agonist human C5a at EC80, FLIPR
How it was run: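 U937 or HEK293 cells expressing human C5aR, plated overnight, then preincubated 60 min with compound. After Fluo-4 Direct dye loading (50 min at 37 °C, 10 min at room temperature), intracellular calcium rise on FLIPR was triggered by human C5a agonist at EC80.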

T1 sequence (P21730 whole entry): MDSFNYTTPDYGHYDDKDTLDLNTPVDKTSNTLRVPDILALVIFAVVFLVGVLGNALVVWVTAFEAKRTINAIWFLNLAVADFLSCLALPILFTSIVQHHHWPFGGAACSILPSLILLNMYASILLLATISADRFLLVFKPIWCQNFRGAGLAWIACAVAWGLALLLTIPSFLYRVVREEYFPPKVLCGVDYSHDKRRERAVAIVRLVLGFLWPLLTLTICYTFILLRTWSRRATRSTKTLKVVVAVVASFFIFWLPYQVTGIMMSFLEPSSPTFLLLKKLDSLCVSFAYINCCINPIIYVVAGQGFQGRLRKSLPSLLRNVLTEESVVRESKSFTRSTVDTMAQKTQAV
Sequence of human C5a receptor (C5aR) (P21730 whole entry): as above

Row | IC50 [1] [nM] | IC50 [2] [nM] | IC50 [3] [nM] | SMILES
1 | 50 to 500 | 50 to 500 | 2000 to 10000 | Cc1ccc(NC(=O)[C@H]2OCCN(C(=O)c3c(C)cccc3F)[C@H]2c2ccc(NC3CCCC3)cc2)cc1C(F)(F)F (relative stereo) [Compound 187, cis-3-(4-(cyclopentylamino)phenyl)-4-(2-fluoro-6-methylbenzoyl)-N-(4-methyl-3-(trifluoromethyl)phenyl)morpholine-2-carboxamide]
2 | 50 to 500 | 50 to 500 | 2000 to 10000 | Cc1ccc(NC(=O)[C@H]2CCCN(c3ncnc4ccccc34)[C@H]2c2ccc(NC3CCCC3)cc2)cc1C(F)(F)F [Compound 5, (2R,3S)-2-(4-(cyclopentylamino)phenyl)-N-(4-methyl-3-(trifluoromethyl)phenyl)-1-(quinazolin-4-yl)piperidine-3-carboxamide]
3 | < 50 | 50 to 500 | 500 to 2000 | Cc1ccc(NC(=O)[C@H]2CCC3CCc4ccccc4C(=O)N3[C@H]2c2ccc(NC3CCCC3)cc2)cc1C(F)(F)F (stereo partly drawn) [Compound 44, (3S,4R)-4-(4-(cyclopentylamino)phenyl)-N-(4-methyl-3-(trifluoromethyl)phenyl)-6-oxo-1,2,3,4,6,11,12,12a-octahydrobenzo[e]pyrido[1,2-a]azepine-3-carboxamide]
4 | < 50 | < 50 | 500 to 2000 | Cc1cccc(F)c1C(=O)N1[C@@H]2CCC[C@@H]2C[C@H](C(=O)Nc2ccc(N(C)C)cc2)[C@@H]1c1ccc(NC2CCCC2)cc1 [Compound 51, (2R,3S,4aR,7aR)-2-(4-(cyclopentylamino)phenyl)-N-(4-(dimethylamino)phenyl)-1-(2-fluoro-6-methylbenzoyl)octahydro-1H-cyclopenta[b]pyridine-3-carboxamide]
5 | 50 to 500 | 50 to 500 | 2000 to 10000 | Cc1cccc(F)c1C(=O)N1[C@@H]2CCC[C@@H]2C[C@H](C(=O)Nc2cnn(C)c2)[C@@H]1c1ccc(NC2CCCC2)cc1 [Compound 54, (2R,3S,4aR,7aR)-2-(4-(cyclopentylamino)phenyl)-1-(2-fluoro-6-methylbenzoyl)-N-(1-methyl-1H-pyrazol-4-yl)octahydro-1H-cyclopenta[b]pyridine-3-carboxamide]
6 | 50 to 500 | < 50 | 2000 to 10000 | Cc1cccc(F)c1C(=O)N1[C@@H]2CCC[C@@H]2C[C@H](C(=O)Nc2ccc(N(C)C)cc2)[C@@H]1c1ccc(NC2CCOCC2)cc1 [Compound 94, (2R,3S,4aR,7aR)-N-(4-(dimethylamino)phenyl)-1-(2-fluoro-6-methylbenzoyl)-2-(4-((tetrahydro-2H-pyran-4-yl)amino)phenyl)octahydro-1H-cyclopenta[b]pyridine-3-carboxamide]
7 | 50 to 500 | < 50 | 2000 to 10000 | Cc1cccc(F)c1C(=O)N1[C@@H]2CCC[C@@H]2C[C@H](C(=O)Nc2ccc3[nH]ncc3c2)[C@@H]1c1ccc(NC2CCOCC2)cc1 [Compound 96, (2R,3S,4aR,7aR)-1-(2-fluoro-6-methylbenzoyl)-N-(1H-indazol-5-yl)-2-(4-((tetrahydro-2H-pyran-4-yl)amino)phenyl)octahydro-1H-cyclopenta[b]pyridine-3-carboxamide]
8 | < 50 | < 50 | 500 to 2000 | Cc1cccc(F)c1C(=O)N1[C@@H]2CCC[C@@H]2C[C@H](C(=O)Nc2ccc3c(ccn3C)c2)[C@@H]1c1ccc(NC2CCOCC2)cc1 [Compound 98, (2R,3S,4aR,7aR)-1-(2-fluoro-6-methylbenzoyl)-N-(1-methyl-1H-indol-5-yl)-2-(4-((tetrahydro-2H-pyran-4-yl)amino)phenyl)octahydro-1H-cyclopenta[b]pyridine-3-carboxamide]
9 | < 50 | < 50 | 50 to 500 | Cc1ccc(NC(=O)[C@H]2C[C@H]3COC[C@H]3N(C(=O)c3c(C)cccc3F)[C@H]2c2ccc(NC3CCCC3)cc2)cc1C(F)(F)F [Compound 119, (2R,3S,4aR,7aS)-2-(4-(cyclopentylamino)phenyl)-1-(2-fluoro-6-methylbenzoyl)-N-(4-methyl-3-(trifluoromethyl)phenyl)octahydrofuro[3,4-b]pyridine-3-carboxamide]
10 | 50 to 500 | 50 to 500 | 2000 to 10000 | Cc1cccc(F)c1C(=O)N1[C@@H]2COC[C@@H]2C[C@H](C(=O)Nc2ccc(N(C)C)cc2)[C@@H]1c1ccc(NC2CCCC2)cc1 [Compound 124, (2R,3S,4aR,7aS)-2-(4-(cyclopentylamino)phenyl)-N-(4-(dimethylamino)phenyl)-1-(2-fluoro-6-methylbenzoyl)octahydrofuro[3,4-b]pyridine-3-carboxamide]
11 | < 50 | < 50 | 2000 to 10000 | Cc1cccc(F)c1C(=O)N1[C@@H]2COC[C@@H]2C[C@H](C(=O)Nc2ccc3c(cnn3C)c2)[C@@H]1c1ccc(NC2CCCC2)cc1 [Compound 126, (2R,3S,4aR,7aS)-2-(4-(cyclopentylamino)phenyl)-1-(2-fluoro-6-methylbenzoyl)-N-(1-methyl-1H-indazol-5-yl)octahydrofuro[3,4-b]pyridine-3-carboxamide]
12 | 500 to 2000 | 50 to 500 | 2000 to 10000 | Cc1cccc(F)c1C(=O)N1[C@@H]2COC[C@@H]2C[C@H](C(=O)Nc2ccc3[nH]ncc3c2)[C@@H]1c1ccc(NC2CCCC2)cc1 [Compound 138, (2R,3S,4aR,7aS)-2-(4-(cyclopentylamino)phenyl)-1-(2-fluoro-6-methylbenzoyl)-N-(1H-indazol-5-yl)octahydrofuro[3,4-b]pyridine-3-carboxamide]
13 | 50 to 500 | < 50 | 2000 to 10000 | Cc1cccc(F)c1C(=O)N1[C@@H]2COC[C@@H]2C[C@H](C(=O)Nc2ccc3c(ccn3C)c2)[C@@H]1c1ccc(NC2CCCC2)cc1 [Compound 139, (2R,3S,4aR,7aS)-2-(4-(cyclopentylamino)phenyl)-1-(2-fluoro-6-methylbenzoyl)-N-(1-methyl-1H-indol-5-yl)octahydrofuro[3,4-b]pyridine-3-carboxamide]
14 | 500 to 2000 | 50 to 500 | 2000 to 10000 | Cc1ccc(NC(=O)[C@H]2CCCN(c3ncnc4cnccc34)[C@H]2c2ccc(NC3CCCC3)cc2)cc1C(F)(F)F [Compound 162, (2R,3S)-2-(4-(cyclopentylamino)phenyl)-N-(4-methyl-3-(trifluoromethyl)phenyl)-1-(pyrido[3,4-d]pyrimidin-4-yl)piperidine-3-carboxamide]

Row | SMILES | IC50 [1] [nM] | IC50 [2] [nM] | IC50 [3] [nM]
15 | Cc1ccc(NC(=O)C2C[C@@H]3COC[C@@H]3N(C(=O)c3c(C)cccc3F)C2c2ccc(NC3CCCC3)cc2)cc1C(F)(F)F (relative stereo) [Compound 118, cis-2-(4-(cyclopentylamino)phenyl)-1-(2-fluoro-6-methylbenzoyl)-N-(4-methyl-3-(trifluoromethyl)phenyl)octahydrofuro[3,4-b]pyridine-3-carboxamide] | < 50 | < 50 | 50 to 500
16 | Cc1cccc(F)c1C(=O)N1C(c2ccc(NC3CCCC3)cc2)C(C(=O)Nc2ccc3c(cnn3C)c2)C[C@@H]2COC[C@@H]21 (relative stereo) [Compound 121, cis-2-(4-(cyclopentylamino)phenyl)-1-(2-fluoro-6-methylbenzoyl)-N-(1-methyl-1H-indazol-5-yl)octahydrofuro[3,4-b]pyridine-3-carboxamide] | 50 to 500 | 50 to 500 | 50 to 500
17 | Cc1ccc(NC(=O)C2C[C@@H]3COC[C@@H]3N(C(=O)c3c(C)cccc3F)C2c2ccc(CN3CCOCC3(C)C)cc2)cc1C(F)(F)F (relative stereo) [Compound 141, cis-2-(4-((3,3-dimethylmorpholino)methyl)phenyl)-1-(2-fluoro-6-methylbenzoyl)-N-(4-methyl-3-(trifluoromethyl)phenyl)octahydrofuro[3,4-b]pyridine-3-carboxamide] | 500 to 2000 | 50 to 500 | 2000 to 10000
18 | Cc1cccc(F)c1C(=O)N1C(c2ccc(NC3CCCC3)cc2)C(C(=O)Nc2ccc3c(cnn3C)c2)C[C@@H]2CCC[C@@H]21 (relative stereo) [Compound 147, cis-2-(4-(cyclopentylamino)phenyl)-1-(2-fluoro-6-methylbenzoyl)-N-(1-methyl-1H-indazol-5-yl)octahydro-1H-cyclopenta[b]pyridine-3-carboxamide] | 50 to 500 | < 50 | 50 to 500
19 | Cc1cccc(F)c1C(=O)N1C(c2ccc(NC3CCOCC3)cc2)C(C(=O)Nc2ccc3c(cnn3C)c2)C[C@@H]2CCC[C@@H]21 (relative stereo) [Compound 158, cis-1-(2-fluoro-6-methylbenzoyl)-N-(1-methyl-1H-indazol-5-yl)-2-(4-((tetrahydro-2H-pyran-4-yl)amino)phenyl)octahydro-1H-cyclopenta[b]pyridine-3-carboxamide] | < 50 | < 50 | 50 to 500
20 | Cc1cccc(F)c1C(=O)N1C(c2ccc(NC3CCCC3)cc2)C(C(=O)Nc2cnc3cnn(C)c3c2)C[C@@H]2COC[C@@H]21 (relative stereo) [Compound 189, cis-2-(4-(cyclopentylamino)phenyl)-1-(2-fluoro-6-methylbenzoyl)-N-(1-methyl-1H-pyrazolo[4,3-b]pyridin-6-yl)octahydrofuro[3,4-b]pyridine-3-carboxamide] | 50 to 500 | 50 to 500 | 2000 to 10000
